According to patent US20240190872A1, “FABI INHIBITORS FOR GRAM-NEGATIVE PATHOGENS” (THE BOARD OF TRUSTEES OF THE UNIVERSITY OF ILLINOIS, priority 2021, published 2024):
Converted amounts (≈) assume the structure as drawn.

Key:
[1] = test system: E. coli ΔtolC (JW5503); format: cell-based; conditions: efflux deficient E. coli ΔtolC
Experimental: (§1) The compounds synthesized, shown in Table 1, were evaluated against Gram-positive and Gram-negative reference strains (S. aureus 29213 and E. coli MG1655, respectively), as well as an efflux deficient E. coli strain (ΔtolC, JW5503).
(§2) Bacterial strains. S. aureus ATCC 29213, E. coli MG1655, E. coli BAA-2340, E. coli BAA-2469, E. coli BAA-2471, E. cloacae BAA-2341, E. cloacae BAA-2468, K. pneumoniae BAA-1705, K. pneumoniae BAA-2342, K. pneumoniae BAA-2470, K. pneumoniae BAA-2472, and K. pneumoniae BAA-2473 were obtained from ATCC. E. coli JW5503 and E. coli JW3596 were obtained from the KEIO Collection. E. cloacae ATCC 29893 was provided by W. van der Donk (UIUC). E. coli AR-0346, E. coli AR-0349, E. coli AR-0493, E. coli AR-0495, and K. pneumoniae AR-0347 were obtained from the CDC and FDA AR Isolate Bank. E. coli F20987, E. coli M66623, E. cloacae S28901.1, K. pneumoniae M14723, K. pneumoniae M67198, K. pneumoniae M67297, K. pneumoniae S20595, K. pneumoniae S47889, A. baumannii W41979, A. baumannii F19521, A. baumannii M13100, and A. baumannii WO22 were obtained from the University of Illinois Chicago Medical School. A. baumannii KB304, A. baumannii KB343, and A. baumannii KB357 were provided by J. Quale.
(§3) Antimicrobial susceptibility tests. Susceptibility testing was performed in biological triplicate, using the micro-dilution broth method as outlined by the Clinical and Laboratory Standards Institute. Bacteria were cultured with cation-adjusted Muller-Hinton broth (Sigma-Aldrich, Cat# 90922) in round-bottom 96-well plates (Corning, Cat# 3788). Human serum (pooled gender, 0.2 μm filtered) was purchased from BioIVT (Hicksville, NY).

[2] = test system: A. baumannii AR 0313; assay: microbe, parasite or virus in culture; format: cell-based; conditions: clinical isolate
Experimental: as §3

[3] = test system: A. baumannii AR 0033; assay: microbe, parasite or virus in culture; format: cell-based; conditions: clinical isolate
Experimental: as §3

[4] = test system: E. coli AR 0085; assay: microbe, parasite or virus in culture; format: cell-based; conditions: clinical isolate
Experimental: as §3

[5] = test system: K. pneumoniae AR 0560; assay: microbe, parasite or virus in culture; format: cell-based; conditions: clinical isolate
Experimental: as §3

[6] = test system: E. coli AR 0048; assay: microbe, parasite or virus in culture; format: cell-based; conditions: clinical isolate
Experimental: as §3

[7] = test system: K. pneumoniae AR 0113; assay: microbe, parasite or virus in culture; format: cell-based; conditions: clinical isolate
Experimental: as §3

[8] = test system: A. baumannii AR 0299; assay: microbe, parasite or virus in culture; format: cell-based; conditions: clinical isolate
Experimental: as §3

[9] = test system: K. pneumoniae AR 0066; assay: microbe, parasite or virus in culture; format: cell-based; conditions: clinical isolate
Experimental: as §3

[10] = test system: A. baumannii AR 0273; assay: microbe, parasite or virus in culture; format: cell-based; conditions: clinical isolate
Experimental: as §3

[11] = test system: K. pneumoniae BAA 2472; assay: microbe, parasite or virus in culture; format: cell-based; conditions: clinical isolate
Experimental: as §1, §2, §3

[12] = test system: S. aureus ATCC 29213; assay: Antimicrobial susceptibility test (MIC), micro-dilution broth; format: cell-based; conditions: S. aureus ATCC 29213
Text: as §2, §3

[13] = test system: E. coli MG1655; assay: Antimicrobial susceptibility test (MIC); format: cell-based; conditions: E. coli MG1655
Text: as §2, §3

[14] = in vivo; conditions: female, C57BL/6, mouse, in vivo, ip
Experimental: Mouse MTD of Debio-1452-NH3. The protocol was approved by the IACUC at the University of Illinois at Urbana-Champaign (Protocol Number:16144). In these studies, 10- to 12-week-old female C57BL/6 mice purchased from Charles River were used. The maximum tolerate dose (MTD) of single compound was determined first. Debio-1452 amine analogues were formulated in 20% sulfobutyl ether β-cyclodextrin in sterile water. Debio-1452-NH3 (1), and compounds 2 and 3 were given by IP injection and mice were monitored for signs of toxicity for 2 weeks (single dose). For multiple dose, the compound was given by daily IP for 5 consecutive days and mice were monitored for signs of toxicity for 1 month. MTD was the highest dosage with acceptable toxicity (e.g. <20% weight loss). Single dose MTDs were initially determined. […] The MTD of Debio-1452-NH3 (1) was used to inform the dosing schedule used in subsequent efficacy studies.

## Cc1c(CN(C)C(=O)/C=C/c2cnc3c(c2)CC(CCNC(=O)OC(C)(C)C)C(=O)N3)oc2ccccc12 (centres unmarked) [Compound 10]
[1]
  MIC E. coli ΔtolC: 0.031 µg/mL (≈ 0.0598 µM)
[2]
  MIC A. baumannii AR 0313: 16 µg/mL (≈ 30.9 µM)
[3]
  MIC A. baumannii AR 0033: 16 µg/mL (≈ 30.9 µM)
[4]
  MIC E. coli AR 0085: 8 µg/mL (≈ 15.4 µM)
[5]
  MIC K. pneumoniae AR 0560: >32 µg/mL
[6]
  MIC E. coli AR 0048: 8 µg/mL (≈ 15.4 µM)
[7]
  MIC K. pneumoniae AR 0113: 32 µg/mL (≈ 61.7 µM)
[8]
  MIC A. baumannii AR 0299: 8 µg/mL (≈ 15.4 µM)
[9]
  MIC K. pneumoniae AR 0066: 32 µg/mL (≈ 61.7 µM)
[10]
  MIC A. baumannii AR 0273: 8 µg/mL (≈ 15.4 µM)
[11]
  MIC K. pneumoniae BAA 2472: 16 µg/mL (≈ 30.9 µM)
[12]
  MIC S. aureus 29213: 0.002 µg/mL (≈ 0.00386 µM)
[13]
  MIC E. coli MG1655: 8 µg/mL (≈ 15.4 µM)

## Cc1c(CN(C)C(=O)C=Cc2cnc3c(c2)CC2(CC(N)C2)C(=O)N3)oc2ccccc12 (mixture of isomers) [(±)-6]
[1]
  MIC E. coli ΔtolC: 0.062 µg/mL
[2]
  MIC A. baumannii AR 0313: 32 µg/mL
[3]
  MIC A. baumannii AR 0033: 16 µg/mL
[4]
  MIC E. coli AR 0085: 16 µg/mL
[5]
  MIC K. pneumoniae AR 0560: 8 µg/mL
[6]
  MIC E. coli AR 0048: 16 µg/mL
[7]
  MIC K. pneumoniae AR 0113: 16 µg/mL
[8]
  MIC A. baumannii AR 0299: 16 µg/mL
[9]
  MIC K. pneumoniae AR 0066: 8 µg/mL
[10]
  MIC A. baumannii AR 0273: 16 µg/mL
[11]
  MIC K. pneumoniae BAA 2472: 8 µg/mL
[12]
  MIC S. aureus 29213: 0.016 µg/mL
[13]
  MIC E. coli MG1655: 4 µg/mL

## Cc1c(CN(C)C(=O)/C=C/c2cnc3c(c2)CCC(CN)C(=O)N3)oc2ccccc12 (racemic) [(±)-12]
[1]
  MIC E. coli ΔtolC: 0.125 µg/mL (≈ 0.299 µM)
[2]
  MIC A. baumannii AR 0313: >32 µg/mL
[3]
  MIC A. baumannii AR 0033: 16 µg/mL (≈ 38.2 µM)
[4]
  MIC E. coli AR 0085: 8 µg/mL (≈ 19.1 µM)
[5]
  MIC K. pneumoniae AR 0560: 16 µg/mL (≈ 38.2 µM)
[6]
  MIC E. coli AR 0048: 16 µg/mL (≈ 38.2 µM)
[7]
  MIC K. pneumoniae AR 0113: 32 µg/mL (≈ 76.5 µM)
[8]
  MIC A. baumannii AR 0299: 32 µg/mL (≈ 76.5 µM)
[9]
  MIC K. pneumoniae AR 0066: 32 µg/mL (≈ 76.5 µM)
[10]
  MIC A. baumannii AR 0273: 32 µg/mL (≈ 76.5 µM)
[11]
  MIC K. pneumoniae BAA 2472: 32 µg/mL (≈ 76.5 µM)
[12]
  MIC S. aureus 29213: 0.031 µg/mL (≈ 0.0741 µM)
[13]
  MIC E. coli MG1655: 8 µg/mL (≈ 19.1 µM)

## Cc1c(CN(C)C(=O)/C=C/c2cnc3c(c2)CC2(CNC2)C(=O)N3)oc2ccccc12 [Compound 5]
[1]
  MIC E. coli ΔtolC: 0.031 µg/mL (≈ 0.0744 µM)
[2]
  MIC A. baumannii AR 0313: 16 µg/mL (≈ 38.4 µM)
[3]
  MIC A. baumannii AR 0033: 8 µg/mL (≈ 19.2 µM)
[4]
  MIC E. coli AR 0085: 4 µg/mL (≈ 9.6 µM)
[5]
  MIC K. pneumoniae AR 0560: 16 µg/mL (≈ 38.4 µM)
[6]
  MIC E. coli AR 0048: 8 µg/mL (≈ 19.2 µM)
[7]
  MIC K. pneumoniae AR 0113: 16 µg/mL (≈ 38.4 µM)
[8]
  MIC A. baumannii AR 0299: 16 µg/mL (≈ 38.4 µM)
[9]
  MIC K. pneumoniae AR 0066: 8 µg/mL (≈ 19.2 µM)
[10]
  MIC A. baumannii AR 0273: 8 µg/mL (≈ 19.2 µM)
[11]
  MIC K. pneumoniae BAA 2472: 8 µg/mL (≈ 19.2 µM)
[12]
  MIC S. aureus 29213: 0.016 µg/mL (≈ 0.0384 µM)
[13]
  MIC E. coli MG1655: 4 µg/mL (≈ 9.6 µM)

## Cc1c(CN(C)C(=O)/C=C/c2cnc3c(c2)CC2(CC(CN)C2)C(=O)N3)oc2ccccc12 (centres unmarked)
[2]
  MIC A. baumannii AR 0313: >32 µg/mL
[3]
  MIC A. baumannii AR 0033: 32 µg/mL (≈ 72 µM)
[4]
  MIC E. coli AR 0085: 16 µg/mL (≈ 36 µM)
[5]
  MIC K. pneumoniae AR 0560: 32 µg/mL (≈ 72 µM)
[6]
  MIC E. coli AR 0048: 32 µg/mL (≈ 72 µM)
[7]
  MIC K. pneumoniae AR 0113: 32 µg/mL (≈ 72 µM)
[8]
  MIC A. baumannii AR 0299: >32 µg/mL
[9]
  MIC K. pneumoniae AR 0066: 32 µg/mL (≈ 72 µM)
[10]
  MIC A. baumannii AR 0273: >32 µg/mL
[11]
  MIC K. pneumoniae BAA 2472: 32 µg/mL (≈ 72 µM)

## Cc1c(CN(C)C(=O)/C=C/c2cnc3c(c2)CC(CCN)C(=O)N3)oc2ccccc12.Cl (centres unmarked) [Compound 3, (E)-3-(6-(aminoethyl)-7-oxo-5,6,7,8-tetrahydro-1,8-naphthyridin-3-yl)-N-methyl-N-((3-methylbenzofuran-2-yl)methyl)acrylamide hydrochloride]
[14]
  MTD at 2 weeks: 100 mg/kg

## Cc1c(CN(C)C(=O)/C=C/c2ccc3c(c2)CCC(N)C(=O)N3)oc2ccccc12 (single isomer, unassigned) [Isomer 1]
[2]
  MIC A. baumannii AR 0313: >32 µg/mL
[3]
  MIC A. baumannii AR 0033: >32 µg/mL
[4]
  MIC E. coli AR 0085: >32 µg/mL
[5]
  MIC K. pneumoniae AR 0560: >32 µg/mL
[6]
  MIC E. coli AR 0048: >32 µg/mL
[7]
  MIC K. pneumoniae AR 0113: >32 µg/mL
[8]
  MIC A. baumannii AR 0299: >32 µg/mL
[9]
  MIC K. pneumoniae AR 0066: >32 µg/mL
[10]
  MIC A. baumannii AR 0273: >32 µg/mL
[11]
  MIC K. pneumoniae BAA 2472: >32 µg/mL

## Cc1c(CN(C)C(=O)/C=C/c2cnc3c(c2)CCC(CN)C(=O)N3)oc2ccccc12 (centres unmarked)
[2]
  MIC A. baumannii AR 0313: 32 µg/mL (≈ 76.5 µM)
[3]
  MIC A. baumannii AR 0033: 16 µg/mL (≈ 38.2 µM)
[4]
  MIC E. coli AR 0085: 16 µg/mL (≈ 38.2 µM)
[5]
  MIC K. pneumoniae AR 0560: 16 µg/mL (≈ 38.2 µM)
[6]
  MIC E. coli AR 0048: 16 µg/mL (≈ 38.2 µM)
[7]
  MIC K. pneumoniae AR 0113: 32 µg/mL (≈ 76.5 µM)
[8]
  MIC A. baumannii AR 0299: 32 µg/mL (≈ 76.5 µM)
[9]
  MIC K. pneumoniae AR 0066: 32 µg/mL (≈ 76.5 µM)
[10]
  MIC A. baumannii AR 0273: 32 µg/mL (≈ 76.5 µM)
[11]
  MIC K. pneumoniae BAA 2472: 32 µg/mL (≈ 76.5 µM)
